Results as given in article PMC3805573, “Methylglyoxal Evokes Pain by Stimulating TRPA1” (PLoS ONE, 2013).

Columns and labels:
beta cells = experiment: [Ca2+]i-responses in pancreatic beta cells; assay type: cell-based, mice; settings: MG 0.5 mM (Fig. 7A)
Protocol: Mouse islets of Langerhans were isolated from the exocrine pancreas by collagenase digestion (1 mg/ml, type XI, Sigma, Poole, UK). Islets were dissociated by 15 min incubation in trypsin (0.5%, Sigma, Poole, UK) followed by trituration through a flame polished glass Pasteur pipette and the islet cells were seeded on glass cover slips.
(§1) Cells were loaded with 2 µM Fura-2 AM (Molecular Probes, Paisley, UK) in the presence of 1 mM probenecid for ∼1 hr. The experiments were performed in a physiological saline solution containing (in mM) 140 NaCl, 5 KCl, 10 glucose, 10 HEPES, 2 CaCl2, and 1 MgCl2, buffered to pH 7.4 with NaOH. Compounds were applied to cells by local continuous microperfusion of solution through a fine tube placed in close proximity of the cells studied. Images of a group of cells were captured every 2 sec using 340 and 380 nm excitation wavelengths with emission measured at 520 nm with a microscope based imaging system (PTI, New Jersey). Analyses of emission intensity ratios at 340 nm/380 nm excitation (R, in individual cells) were performed using the ImageMaster suite of software.

[1] = tested on: Trpa1+/+ and Trpa1-/- mice; experiment: Intraplantar injection, pain-related behaviors; assay type: in vivo; settings: intraplantar 250 nmoles/paw
Protocol: Data shown are from male and female homozygote Trpa1^− ^/− and Trpa1 ^+/+. The Trpa1-null mice and wild-type littermates were bred from heterozygotic mice provided by Drs. Kelvin Kwan and David Corey (Harvard Medical School, Boston, MA).
Methylglyoxal (250 nmoles in 25 µl saline) was injected subcutaneously into the plantar surface of one of the hind paws using a 50 µl luer-syringe (Hamilton Co.) fitted with a 26-gauge x 3/8 inch intradermal needle. Immediately after injection, mice were placed inside a Perspex chamber and the duration of the pain-related behaviors (licking and biting or flinching and shaking of the injected paw) recorded using a digital stop-watch. Total pain response times over the first 2 minutes were used for analysis as the pain behaviors were largely confined to this period. The glyoxalase 1 inhibitor Sr-p-Bromobenzylglutathione cyclopentyl diester (50 mg/kg) was dissolved in 2% DMSO/20% Tween 80 in saline and administered by intraperitoneal (i.p.) injection (5 ml/kg).

TRPA1 [2] = experiment: Excised inside-out patches, TRPA1 channel activity; assay type: cell-based; settings: inside-out configuration, applied to intracellular face
Protocol: (§2) DRG neurons and TRPA1 CHO cells were studied under voltage-clamp conditions using an Axopatch 200B amplifier and pClamp 10.0 software (Molecular Devices, Sunnyvale, CA). Except where stated otherwise, whole cell recordings were performed at a holding potential of –60 mV using an extracellular solution with the composition described above for [Ca^2+]i measurements. Borosilicate glass pipettes (2–5 MΩ, 75–80% series resistance compensation) were filled with (in mM) 140 KCl, 1 CaCl2, 2 MgATP, 10 EGTA, and 10 HEPES buffered to pH 7.4 (KOH). Excised inside-out patches were recorded using a Ca^2+-free solution containing (in mM) 140 NaCl, 5 KCl, 1 MgCl2, 10 HEPES and 1 EGTA, pH 7.4 (NaOH) in the pipettes and perfused with 140 KCl, 2 MgATP, 1 EGTA, and 10 HEPES (pH 7.4). DRG neurons were studied using an intracellular solution containing (in mM) 140 CsCl, 1 CaCl2, 2 MgATP, 10 EGTA and 10 HEPES, pH 7.4 (CsOH). Drugs were applied by local microperfusion with a rapid solution changer (RSC-200, Biologic, Claix, France).

mouse TRPA1 = target: T1, mouse TRPA1 (Mus musculus, UniProt Q8BLA8); experiment: [Ca2+]i-responses in CHO cells expressing mouse TRPA1; assay type: cell-based; settings: CHO cells expressing mouse TRPA1, extracellular application; read-out: EC50, increases in [Ca2+]i
T1 construct: expressed in transfected cells; host or cells: CHO cells
Protocol: (§3) Untransfected CHO cells and CHO cells expressing mouse or human TRPA1 were grown in MEM Glutamax or AQ medium supplemented with penicillin (100 U/ml), streptomycin (100 µg/ml), and FCS (10%). Plasmids encoding mutated TRPA1 channels were kindly provided by Dr. Ardem Patapoutian. All media, serum and antibiotics were from Invitrogen (Paisley, UK) or Sigma (Poole, UK).
as §1, with “Analyses of emission intensity ratios at 340 nm/380 nm excitation (R, in individual cells) were performed using the ImageMaster suite of software.” left out
Changes in intracellular calcium ([Ca^2+]i) in response to agonists were determined in TRPA1 expressing CHO cells and MDCK cells using a Flexstation 3 (Molecular Devices). […] Basal emission ratios (340 nm/380 nm) were measured and changes in ratio determined at various times after compound addition.

mTRPA1 K712Q = target: T2, mTRPA1 K712Q (Mus musculus, UniProt Q8BLA8, K712Q); experiment: [Ca2+]i-responses of mTRPA1 K712Q in CHO cells; assay type: cell-based; settings: MG 2 mM
T2 construct: expressed in transfected cells; host or cells: CHO cells
Protocol: as §3, §1

TRPA1 [3] = experiment: Whole cell voltage-clamp, TRPA1 CHO cells; assay type: cell-based; settings: MG 0.5 mM (Fig. 1B)
Protocol: as §2

T1 sequence (Q8BLA8 whole entry): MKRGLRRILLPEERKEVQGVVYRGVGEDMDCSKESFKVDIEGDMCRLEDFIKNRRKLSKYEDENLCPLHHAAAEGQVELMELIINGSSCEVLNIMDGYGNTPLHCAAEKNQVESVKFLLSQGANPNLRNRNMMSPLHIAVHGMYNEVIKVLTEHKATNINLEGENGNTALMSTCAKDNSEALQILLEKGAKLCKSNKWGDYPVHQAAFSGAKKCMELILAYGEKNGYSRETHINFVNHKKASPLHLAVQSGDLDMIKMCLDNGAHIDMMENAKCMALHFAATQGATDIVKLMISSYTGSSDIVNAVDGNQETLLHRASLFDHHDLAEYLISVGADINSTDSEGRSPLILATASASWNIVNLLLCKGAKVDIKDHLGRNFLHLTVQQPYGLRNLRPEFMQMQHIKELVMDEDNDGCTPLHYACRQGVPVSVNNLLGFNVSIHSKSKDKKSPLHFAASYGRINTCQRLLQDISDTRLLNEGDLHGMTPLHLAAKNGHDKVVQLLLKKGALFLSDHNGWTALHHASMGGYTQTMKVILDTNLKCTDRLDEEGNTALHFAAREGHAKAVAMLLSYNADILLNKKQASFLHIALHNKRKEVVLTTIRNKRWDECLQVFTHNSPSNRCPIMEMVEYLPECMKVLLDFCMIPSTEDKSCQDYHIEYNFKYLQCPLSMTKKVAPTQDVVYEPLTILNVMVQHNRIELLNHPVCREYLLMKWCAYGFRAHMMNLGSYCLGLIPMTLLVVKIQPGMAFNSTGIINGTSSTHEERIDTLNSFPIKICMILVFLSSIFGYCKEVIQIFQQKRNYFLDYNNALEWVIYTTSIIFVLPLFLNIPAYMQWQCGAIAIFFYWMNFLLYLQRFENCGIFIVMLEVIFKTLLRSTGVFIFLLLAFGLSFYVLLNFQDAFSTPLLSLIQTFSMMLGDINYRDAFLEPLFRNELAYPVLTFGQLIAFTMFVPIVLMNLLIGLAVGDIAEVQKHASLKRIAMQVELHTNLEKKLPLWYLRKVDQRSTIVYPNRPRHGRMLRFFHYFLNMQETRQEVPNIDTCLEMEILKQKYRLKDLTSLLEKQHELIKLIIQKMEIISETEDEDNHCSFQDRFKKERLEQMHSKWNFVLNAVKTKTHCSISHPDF
T2 sequence (Q8BLA8 whole entry K712Q): as the sequence (Q8BLA8 whole entry) above, with K712Q counted along it

SMILES: CC(=O)C=O [MG, methylglyoxal]
- [Ca2+]i-responses in beta cells (beta cells): evoked [Ca^2+]i-responses in a subpopulation of tolbutamide sensitive beta cells
- number of MG sensitive cells and response amplitude, Trpa1+/+ vs Trpa1-/- cultures (beta cells): similar
- pain-related behaviors during 2 min after injection [1]: induced a significant nociceptive response
- EC50 (TRPA1 [2]): 74 µM
- EC50 (mouse TRPA1): 900 ± 100 µM
- amplitude of [Ca2+]i-responses in mTRPA1 K712Q compared to WT mTRPA1 (mTRPA1 K712Q): significantly reduced
- whole cell current (TRPA1 [3]): produced inward currents
